Source: US20090209570A1 (priority 2001, published 2009)
Counter-ions that a name gives are not always drawn. Like-named read-outs stand apart in the source and are kept apart here.

Experiments:
rats = experiment: Analgesia test (rat tail flick test); format: in vivo; conditions: for sc/icv: ratio of tail flick ED50 sc to icv; for Analgesic effect (in percent) after 10 minutes / Analgesic effect (in percent) after 20 minutes / Analgesic effect (in percent) after 30 minutes / Analgesic effect (in percent) after 60 minutes / Analgesic effect (in percent) after 120 minutes / Analgesic effect (in percent) after 180 minutes: 3 0.5 μg/rat, 4 0.25 μg/rat, rats 120 g; for Analgesic effect (in percent) after 10 minutes / Analgesic effect (in percent) after 20 minutes / Analgesic effect (in percent) after 30 minutes / Analgesic effect (in percent) after 60 minutes / Analgesic effect (in percent) after 120 minutes: morphine 50 μg/rat
Procedure: A test on rats was applied (“rat tail flick test”). This test was carried out as previously described (Zs. Fürst et al., Eur. J. Pharmacol. 1993, Vol. 236, pp. 209-215).

anaesthetised rats = conditions: rat, in vivo; for respiratory depression at analgesic doses (in words): sc
in vivo = conditions: rat
[1] = tested on: carrageen-induced hyperalgesia on the right hind paw of rats; experiment: Randall-Selitto test (hind-paw withdrawal latency, mechanical stimulation); format: in vivo, rat
Procedure: The Randall-Selitto Test (L. O. Randall and J. J. Selitto, Arch. Int. Pharmacodyn. 1957, Vol. 111, pp. 409-419) was applied to study the analgesic effect on carrageen-induced hyperalgesia on the right hind paw of rats. In this way the “hind-paw withdrawal latency” (HWL; latency period for withdrawing the right hind paw) with mechanical stimulation (e.g. I. Bileviciute-Ljungar and M. Spetea, Br. J. Pharmcol. 2001, Vol. 132, pp. 252-258) is measured.

[2] = tested on: rats with ligations around the ischias nerve; experiment: Von Frey test (mechanical allodynia); format: in vivo, rat
Procedure: (§1) The tests involve models to test the effect of a substance on neuropathic pain.
(§2) For both tests ligations were applied around the ischias nerve (G. J. Bennett and Y. K. Xie, Pain 1988, Vol. 33, 87-107).
A slight pressure (2 to 60 g) was exerted on the skin of the hind paw of the rats (200-250 g) using Von Frey hairs and the latency period of withdrawal of the hind paw was studied at various time intervals (5, 15, 30 and 60 minutes after the application of the substance). The substance to be investigated was applied via intraplant (ipl).

[3] = tested on: rats with ligations around the ischias nerve; experiment: Cold water allodynia test (thermal allodynia); format: in vivo, rat
Procedure: as §1, §2
Thermal stimulation (cold water) was used to initiate withdrawal of the hind paw of the rats (200-300 g). After 5, 15 and 30 min (after application of the substance) the latency period of the withdrawal of the hind paw was studied (J. C. Hunter et al., Eur. J. Pharmacol., 1997, Vol. 324, 153-160). The substances to be investigated were applied via intraplant (ipl).

μ-opioid receptors = target: T1, μ-opioid receptors (Rattus norvegicus, UniProt P33535); experiment: Opioid receptor binding studies with [3H]DAMGO on rat's brain homogenisates
T1 construct: from tissue; host or cells: rat brain homogenate

[4] = central, rat tail flick test, intracerebroventricular application, read-out: ED50 (μg/kg, icv)
[5] = sc, rat tail flick test, subcutaneous application, read-out: ED50 (μg/kg, sc)
[6] = 20 μg/kg, subcutaneous application
[7] = 100 μg/rat after subcutaneous application
[8] = peripherally acting opioid antagonist

T1 sequence (P33535 whole entry): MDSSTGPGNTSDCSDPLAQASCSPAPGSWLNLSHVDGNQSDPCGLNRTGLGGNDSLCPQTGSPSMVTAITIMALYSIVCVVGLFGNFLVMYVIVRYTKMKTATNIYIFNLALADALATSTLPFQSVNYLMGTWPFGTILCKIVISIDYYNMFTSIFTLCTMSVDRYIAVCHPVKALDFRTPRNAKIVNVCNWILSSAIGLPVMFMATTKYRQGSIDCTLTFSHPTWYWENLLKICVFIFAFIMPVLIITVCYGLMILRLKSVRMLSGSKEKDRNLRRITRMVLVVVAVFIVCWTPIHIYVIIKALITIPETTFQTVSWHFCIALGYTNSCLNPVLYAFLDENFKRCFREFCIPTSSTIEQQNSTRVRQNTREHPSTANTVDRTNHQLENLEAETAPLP

SMILES: CO[C@@]12CC[C@@H](N)[C@@H]3Oc4c(O)ccc5c4[C@@]31CCN(C)[C@@H]2C5
- melting point: > 235 °C

SMILES: CO[C@@]12CC[C@H](N[C@@H](C)C(=O)O)[C@@H]3Oc4c(O)ccc5c4[C@@]31CCN(C)C2C5 [Compound 7, (2′S)-2′-(4,5α-epoxy-3-hydroxy-14β-methoxy-17-methylmorphinan-6α-ylamino)-propionic acid bis(tetrafluoroborate)]
- ED50 (rats; [4]): 0.75 µg/kg
- analgesic activity (in words) (rats; rat tail flick test): very high analgesic activity
- sc/icv (rats): 133
- ED50 (rats; [5]): 100 µg/kg

SMILES: CO[C@@]12CC[C@H](NCC(=O)O)[C@@H]3Oc4c(O)ccc5c4[C@@]31CCN(C)C2C5 [Compound 3, (4,5α-epoxy-3-hydroxy-14β-methoxy-17-methylmorphinan-6α-ylamino)-acetic acid sesqui(trifluoroacetate)]
- ED50 (rats; [4]): 0.49 µg/kg
- passage of the blood-brain barrier (concluded from sc/icv figures) (rats; conclusion from tail flick sc/icv ratio): only overcome the blood-brain barrier in a very restricted manner
- Analgesic effect (in percent) after 10 minutes (rats; icv): 46%
- Analgesic effect (in percent) after 20 minutes (rats; icv): 62%
- Analgesic effect (in percent) after 30 minutes (rats; icv): 59%
- Analgesic effect (in percent) after 60 minutes (rats; icv): 100%
- Analgesic effect (in percent) after 120 minutes (rats; icv): 100%
- Analgesic effect (in percent) after 180 minutes (rats; icv): 90%
- analgesic activity (in words) (rats; rat tail flick test): very high analgesic activity
- sc/icv (rats): 176
- ED50 (rats; [5]): 86 µg/kg
- respiratory depression at analgesic doses (in words) (anaesthetised rats): not able to initiate a respiratory depression
- ED50 (in vivo): 0.00083 mg/kg
- ED50 (in vivo; sc): 1 mg/kg

SMILES: CO[C@@]12CC[C@@H](N[C@@H](C)C(=O)O)[C@@H]3Oc4c(O)ccc5c4[C@@]31CCN(C)C2C5 [Compound 8, (2′S)-2′-(4,5α-epoxy-3-hydroxy-14β-methoxy-17-methylmorphinan-6β-ylamino)-propionic acid bis(tetrafluoroborate)]
- ED50 (rats; [4]): 0.67 µg/kg
- analgesic activity (in words) (rats; rat tail flick test): very high analgesic activity
- sc/icv (rats): 746
- ED50 (rats; [5]): 500 µg/kg

SMILES: CO[C@@]12CC[C@@H](NCC(=O)O)[C@@H]3Oc4c(O)ccc5c4[C@@]31CCN(C)C2C5 [Compound 4, (4,5α-epoxy-3-hydroxy-14β-methoxy-17-methylmorphinan-6β-ylamino)-acetic acid sesqui(trifluoroacetate)]
- ED50 (rats; [4]): 0.42 µg/kg
- Analgesic effect (in percent) after 10 minutes (rats; icv): 61%
- Analgesic effect (in percent) after 20 minutes (rats; icv): 74%
- Analgesic effect (in percent) after 30 minutes (rats; icv): 76%
- Analgesic effect (in percent) after 60 minutes (rats; icv): 100%
- Analgesic effect (in percent) after 120 minutes (rats; icv): 100%
- Analgesic effect (in percent) after 180 minutes (rats; icv): 90%
- analgesic activity (in words) (rats; rat tail flick test): very high analgesic activity
- times as active as morphine after intracerebroventricular application (icv) (rats; rat tail flick test, icv, relative to morphine): 238 times
- times as active as morphine after subcutaneous application (sc) (rats; rat tail flick test, sc, relative to morphine): 68 times
- sc/icv (rats): 67
- ED50 (rats; [5]): 28 µg/kg
- analgesic activity (rise in HWL of at least 100% taken as significant) [1, 6]: significant analgesic activity
- duration of analgesic effect [1, 6]: approx. 14 hours
- passage of the blood-brain barrier (concluded from naloxone methiodide antagonism) ([1]; conclusion from the Randall-Selitto test): cannot overcome the blood-brain barrier
- anti-allodynic activity (rise of at least 100% in latency of hind paw withdrawal taken as significant) [2, 7]: significant anti-allodynic activity
- anti-allodynic effect after naloxone methiodide (ipl) [2, 8]: completely neutralise
- anti-allodynic activity (rise of at least 100% in latency of hind paw withdrawal taken as significant) [3, 7]: significant anti-allodynic activity
- anti-allodynic effect after naloxone methiodide (ipl) [3, 8]: completely neutralise
- respiratory depression at analgesic doses (in words) (anaesthetised rats): not able to initiate a respiratory depression
- ED50 (in vivo): 0.00042 mg/kg
- ED50 (in vivo; sc): 0.5 mg/kg

SMILES: O=C(O)CN[C@@H]1CC[C@@]2(OCCCc3ccccc3)[C@H]3Cc4ccc(O)c5c4[C@@]2(CCN3CC2CC2)[C@H]1O5 [Compound 38, {17-cyclopropylmethyl-4,5α-epoxy-3-hydroxy-14β-[(3-phenylpropyl)oxy]-morphinan-6β-ylamino}acetic acid dihydrochloride]
- Ki (μ-opioid receptors): 0.24 nM

SMILES: CO[C@@]12CC[C@@H](NC(=N)N)[C@@H]3Oc4c(O)ccc5c4[C@@]31CCN(C)[C@@H]2C5 [Compound 17, 4,5α-epoxy-6β-guanidinyl-14β-methoxy-17-methylmorphinan-3-ol dihydrochloride]
- Ki (μ-opioid receptors): 0.25 nM

SMILES: CO[C@@]12CC[C@H](N[C@@H](Cc3ccccc3)C(=O)O)[C@@H]3Oc4c(O)ccc5c4[C@@]31CCN(C)C2C5 [Compound 11, (2′S)-2′-(4,5α-epoxy-3-hydroxy-14β-methoxy-17-methylmorphinan-6α-ylamino)-3′-phenylpropionic acid bis(tetrafluoroborate)]
- Ki (μ-opioid receptors): 0.95 nM

SMILES: CO[C@@]12CCC(NCC(=O)OC(C)(C)C)[C@@H]3Oc4c(O)ccc5c4[C@@]31CCN(C)C2C5 (stereo in doubt) [Compound 2, (4,5α-epoxy-3-hydroxy-14β-methoxy-17-methylmorphinan-6β-ylamino)-acetic acid-tert.-butylester]
- Ki (μ-opioid receptors): 1.3 nM

SMILES: CN1CC[C@]23c4c5ccc(O)c4O[C@H]2[C@@H](O)C=C[C@H]3[C@H]1C5 [Morphine, morphine, reference compound]
- ED50 (rats; [4]): 100 µg/kg
- Analgesic effect (in percent) after 10 minutes (rats; icv): 57%
- Analgesic effect (in percent) after 20 minutes (rats; icv): 91%
- Analgesic effect (in percent) after 30 minutes (rats; icv): 74%
- Analgesic effect (in percent) after 60 minutes (rats; icv): 59%
- Analgesic effect (in percent) after 120 minutes (rats; icv): 20%
- sc/icv (rats): 19
- ED50 (rats; [5]): 1900 µg/kg
- sc/icv (anaesthetised rats): 34
- ED50 (in vivo): 0.083 mg/kg
- ED50 (in vivo; sc): 2.8 mg/kg

SMILES: CCOC(=O)CN[C@@H]1CC[C@@]2(OC)[C@H]3Cc4ccc(O)c5c4[C@@]2(CCN3C)[C@H]1O5 [Compound 23, (4,5α-epoxy-3-hydroxy-14β-methoxy-17-methylmorphinan-6β-ylamino)-acetic acid-ethylester dihydrochloride]
- Ki (μ-opioid receptors): 0.8 nM

SMILES: CCOC(=O)CN[C@@H]1CC[C@@]2(OC)[C@H]3Cc4ccc(O)c5c4[C@@]2(CCN3C)[C@H]1O5 (as salt: hydrochloride) [Compound 23, (4,5α-epoxy-3-hydroxy-14β-methoxy-17-methylmorphinan-6β-ylamino)-acetic acid-ethylester dihydrochloride]
- melting point: > 200 °C

SMILES: CCOC(=O)CN[C@H]1CC[C@@]2(OC)[C@H]3Cc4ccc(O)c5c4[C@@]2(CCN3C)[C@H]1O5 [Compound 22, (4,5α-epoxy-3-hydroxy-14β-methoxy-17-methylmorphinan-6α-ylamino)-acetic acid-ethylester dihydrochloride]
- Ki (μ-opioid receptors): 0.21 nM

SMILES: CO[C@@]12CC[C@H](NCC(=O)OC(C)(C)C)[C@@H]3Oc4c(O)ccc5c4[C@@]31CCN(C)[C@@H]2C5 [Compound 1, (4,5α-epoxy-3-hydroxy-14β-methoxy-17-methylmorphinan-6α-ylamino)-acetic acid-tert.-butylester]
- Ki (μ-opioid receptors): 0.48 nM

SMILES: CO[C@@]12CC[C@@H](NC(=NC(=O)OC(C)(C)C)NC(=O)OC(C)(C)C)[C@@H]3Oc4c(O)ccc5c4[C@@]31CCN(C)C2C5 [Compound 16]
- Ki (μ-opioid receptors; [3H]DAMGO as radio-ligand, rat's brain homogenisates, read-out: Ki (nM) (μ-receptors)): 0.61 nM
